Experimental data published in US9580390B2, “Indazole compounds as kinase inhibitors and method of treating cancer with same” (University Health Network, priority 2011, dated 2017).

Key:
[1] = system: colon cancer cells (HCT116); assay: Cancer cell line growth inhibition (SRB assay); assay type: cell-based; conditions: Homo sapiens, HCT-116; read-out: Cancer Cell Line GI50 Range HCT116
[2] = system: TICs (Ovarian 2393A); assay: Ovarian tumor-initiating cell growth inhibition (Alamar Blue); assay type: cell-based; conditions: 144 h; Ovarian 2393A TICs, 6 days; read-out: Tumor Initiating Cell GI50 Range Ovarain 2393A
[3] = biological target: T1, human TTK (Homo sapiens, UniProt P33981); assay: TTK inhibition assay (indirect ELISA); assay type: biochemical; conditions: read-out: TTK IC50 Range
T1 construct: amino terminal GST fusion of full length human TTK; purchased Invitrogen
T1 sequence (P33981 1-857): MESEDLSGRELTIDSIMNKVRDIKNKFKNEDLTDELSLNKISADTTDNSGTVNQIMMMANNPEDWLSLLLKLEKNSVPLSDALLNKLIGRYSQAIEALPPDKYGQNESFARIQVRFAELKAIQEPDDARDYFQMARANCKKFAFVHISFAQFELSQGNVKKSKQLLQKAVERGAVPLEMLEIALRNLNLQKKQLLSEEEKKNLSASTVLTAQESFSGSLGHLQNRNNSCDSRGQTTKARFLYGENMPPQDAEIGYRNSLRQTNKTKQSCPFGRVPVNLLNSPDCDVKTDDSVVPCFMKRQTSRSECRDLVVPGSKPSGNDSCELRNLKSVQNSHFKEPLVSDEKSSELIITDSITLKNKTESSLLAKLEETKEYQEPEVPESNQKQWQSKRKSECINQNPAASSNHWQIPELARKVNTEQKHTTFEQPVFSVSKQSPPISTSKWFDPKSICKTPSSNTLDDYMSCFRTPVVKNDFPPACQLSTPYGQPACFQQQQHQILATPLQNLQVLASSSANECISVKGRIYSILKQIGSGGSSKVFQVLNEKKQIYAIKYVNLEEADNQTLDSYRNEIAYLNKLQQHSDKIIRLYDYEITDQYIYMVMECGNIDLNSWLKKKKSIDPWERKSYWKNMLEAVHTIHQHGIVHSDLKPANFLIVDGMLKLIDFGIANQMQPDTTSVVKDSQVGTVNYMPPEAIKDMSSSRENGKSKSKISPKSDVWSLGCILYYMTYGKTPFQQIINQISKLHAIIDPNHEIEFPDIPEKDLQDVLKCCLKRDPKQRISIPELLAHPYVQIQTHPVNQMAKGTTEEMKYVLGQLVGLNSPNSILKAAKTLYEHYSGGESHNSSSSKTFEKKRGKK

[4] = system: TICs (Colon 12); assay: Colon tumor-initiating cell growth inhibition (Alamar Blue); assay type: cell-based; conditions: 216 h; Colon 12 TICs, 9 days; read-out: Tumor Initiating Cell GI50 Range Colon 12
From the text: Materials and Methods: Non-tissue or tissue cultured treated T-75 flask and 96-well plates were purchased from VWR. Vitamin B-27 supplement, MEM NEAA (minimum essential medium non essential amino acids), sodium pyruvate, L-glutamine, N2 supplement, penicillin-streptomycin and fungizone/amphotericin B were obtained from Invitrogen. Lipid mixture, heparin and EGF were purchased from Sigma; bFGF from BD Biosciences. Tumor Initiating Cells (TICs) from colon were routinely maintained using non-tissue cultured treated T-75 flasks in DMEM:F12 medium containing 0.2×B-27 supplement, 4 ug/ml heparin, 1×MEM NEAA, 1× sodium pyruvate, 1 mM glutamine, 10 pg/ul bFGF, 20 pg/ul EGF, 1×N2 supplement, lipid mixture, penicillin-streptomycin and fungizone/amphotericin B. Ovarian TICs were routinely maintained using tissue cultured treated T-75 flasks in DMEM:F12 medium containing 1×B-27 supplement, 4 ug/ml heparin, 20 pg/ul bFGF, 20 pg/ul EGF and penicillin-streptomycin.
Assay Protocol: Compounds described herein were dissolved in DMSO and further diluted in cell culture medium for GI50 determination. Colon TICs were trypsinized and seeded into non-tissue cultured treated 96-well plates with 4,000 cells/well. After 24 h, compound was added into the cell culture at different concentrations, and the final concentration of DMSO was adjusted to 0.1%. Cells were then cultured at 37° C. for 9 days. Ovarian TICs were trypsinized and seeded into tissue cultured treated 96-well plates with 1,000 cells/well. After 24 h, compound was added into the cell culture at different concentrations, and the final concentration of DMSO was adjusted to 0.1%. Cells were then cultured at 37° C. for 6 days. Cell viability was assessed by Alamar Blue assay: 10 ul of Alamar Blue was added into each well. After 4 hours incubation at 37° C., fluorescence was recorded at excitation 544 and emission 590. GI50 (Growth inhibition) was calculated using GraphPad Prism 4.0 software.

[5] = system: ovarian cancer cells (PA-1); assay: Cancer cell line growth inhibition (SRB assay); assay type: cell-based; conditions: Homo sapiens, PA-1; read-out: Cancer Cell Line GI50 Range PA-1
[6] = system: Breast cancer cells; assay: Cancer cell line growth inhibition (SRB assay); assay type: cell-based; conditions: Homo sapiens; MDA-MB-468; read-out: Cancer Cell Line GI50 Range MDA-MB-468

| SMILES | GI50 [1] [nM] | GI50 [2] [nM] | IC50 [3] [nM] | GI50 [4] [nM] | GI50 [5] [nM] | GI50 [6] [nM] |
| --- | --- | --- | --- | --- | --- | --- |
| CC(C)C(NC(=O)c1ccc2[nH]nc(-c3ccc(O[C@H]4C[C@H]5CCC[C@@H](C4)N5C)cc3)c2c1)c1ccccc1Cl (stereo partly drawn) [Example A394, N-(1-(2-chlorophenyl)-2-methylpropyl)-3-(4-(((lR,3R,5S)-9-methyl-9-azabicyclo[3.3.1]nonan-3-yl)oxy)phenyl)-1H-indazole-5-carboxamide] | < 100 | 100 to 500 | < 100 | 100 to 500 | 100 to 500 | 100 to 500 |
| O=C(N[C@H](c1ccccn1)C1CCCC1)c1ccc2[nH]nc(-c3ccc(N4C5COCC4CC(O)C5)cc3)c2c1 (stereo partly drawn) [Example A420, N-((S)-cyclopentyl(pyridin-2-yl)methyl)-3-(4-((1R,5S,7R)-7-hydroxy-3-oxa-9-azabicyclo[3.3.1]nonan-9-yl)phenyl)-1H-indazole-5-carboxamide] | < 100 | < 100 | < 100 | < 100 | < 100 | < 100 |
| CC(C)[C@H](NC(=O)c1ccc2[nH]nc(-c3ccc(OC4CCN(C)CC4)c(S(C)(=O)=O)c3)c2c1)c1ccccc1Cl [Example A259, (S)-N-(1-(2-chlorophenyl)-2-methylpropyl)-3-(4-((1-methylpiperidin-4-yl)oxy)-3-(methylsulfonyl)phenyl)-1H-indazole-5-carboxamide] | < 100 | < 100 | < 100 | 100 to 500 | < 100 | < 100 |
| CC(C)C[C@H](NC(=O)c1ccc2[nH]nc(-c3ccc(N4[C@@H]5CC[C@H]4COC5)cc3)c2c1)c1ccccn1 [Example A303, 3-(4-((1R,5S)-3-oxa-8-azabicyclo[3.2.1]octan-8-yl)phenyl)-N-((S)-3-methyl-1-(pyridin-2-yl)butyl)-1H-indazole-5-carboxamide] | < 100 | < 100 | < 100 | < 100 | < 100 | < 100 |
| CC1=CC2(CCN(C)CC2)Oc2ccc(-c3n[nH]c4ccc(C(=O)NCC5(N6CCOCC6)CCCCC5)cc34)cc21 [Example A489, 3-(1′,4-dimethylspiro[chromene-2,4′-piperidin]-6-yl)-N-((1-morpholinocyclohexyl)methyl)-1H-indazole-5-carboxamide] | < 100 | < 100 | < 100 | < 100 | < 100 | < 100 |
| CC(C)[C@H](NC(=O)c1ccc2[nH]nc(-c3ccc(N4C5COCC4CC(O)C5)cc3)c2c1)c1ccccc1Cl (stereo partly drawn) [Example A421, N((S)-1-(2-chlorophenyl)-2-methylpropyl)-3-(4-((1R,5S,7R)-7-hydroxy-3-oxa-9-azabicyclo [3.3.1]nonan-9-yl)phenyl)-1H-indazole-5-carboxamide] | < 100 | < 100 | < 100 | < 100 | < 100 | < 100 |
| CCC[C@H](NC(=O)c1ccc2[nH]nc(-c3ccc(OC4CC5CCC(C4)N5C=O)cc3)c2c1)c1ccccc1 (stereo partly drawn) [Example A343, 3-(4-(((1R,3R,5S)-8-formyl-8-azabicyclo[3.2.1]octan-3-yl)oxy)phenyl)-N-((S)-1-phenylbutyl)-1H-indazole-5-carboxamide] | < 100 | 100 to 500 | < 100 | < 100 | < 100 | 100 to 500 |
| O=C(N[C@H](c1ccccn1)C1CC1)c1ccc2[nH]nc(-c3ccc(N4CC(C5COC5)C4)cc3)c2c1 [Example A311, (S)-N-(cyclopropyl(pyridin-2-yl)methyl)-3-(4-(3-(oxetan-3-yl)azetidin-1-yl)phenyl)-1H-indazole-5-carboxamide] | < 100 | < 100 | < 100 | < 100 | < 100 | < 100 |
| CC(C)[C@H](NC(=O)c1ccc2[nH]nc(-c3ccc(N4C5CCC4CC(O)C5)cc3)c2c1)c1ccccc1Cl (stereo partly drawn) [Example A356, N-((S)-1-(2-chlorophenyl)-2-methylpropyl)-3-(4-((1R,3S,5S)-3-hydroxy-8-azabicyclo[3.2.1]octan-8-yl)phenyl)-1H-indazole-5-carboxamide] | < 100 | < 100 | < 100 | < 100 | < 100 | < 100 |
| O=C(NCC1(N2CCOCC2)CCCCC1)c1ccc2[nH]nc(-c3ccc(N4[C@@H]5CC[C@H]4C[C@@H](O)C5)cc3)c2c1 [Example A508, 3-(4-((1R,3R,5S)-3-hydroxy-8-azabicyclo[3.2.1]octan-8-yl)phenyl)-N-((1-morpholinocyclohexyl)methyl)-1H-indazole-5-carboxamide] | < 100 | < 100 | < 100 | < 100 | < 100 | < 100 |
| CN1[C@@H]2CC[C@H]1C[C@@H](Oc1ccc(-c3n[nH]c4ccc(C(=O)NC(c5ccsc5)C5CCC5)cc34)cc1)C2 (stereo partly drawn) [Example A283, N-(cyclobutyl(thiophen-3-yl)methyl)-3-(4-(((1R,3R,5S)-8-methyl-8-azabicyclo[3.2.1]octan-3-yl)oxy)phenyl)-1H-indazole-5-carboxamide] | < 100 | 100 to 500 | < 100 | 100 to 500 | < 100 | 100 to 500 |
| CC1=CC2(CCN(C)CC2)Oc2ccc(-c3n[nH]c4ccc(C(=O)N[C@H](c5ccccc5Cl)C(C)C)cc34)cc21 [Example A258, (S)-N-(1-(2-chlorophenyl)-2-methylpropyl)-3-(1′,4-dimethylspiro[chromene-2,4′-piperidin]-6-yl)-1H-indazole-5-carboxamide] | < 100 | < 100 | < 100 | < 100 | < 100 | < 100 |
| O=C(N[C@H](c1ccccn1)C1CCCC1)c1ccc2[nH]nc(-c3ccc(N4CCCN(C5COC5)CC4)cc3)c2c1 [Example A370, (S)-N-(cyclopentyl(pyridin-2-yl)methyl)-3-(4-(4-(oxetan-3-yl)-1,4-diazepan-1-yl)phenyl)-1H-indazole-5-carboxamide] | < 100 | 100 to 500 | < 100 | < 100 | < 100 | < 100 |
| CC(C)[C@H](NC(=O)c1ccc2[nH]nc(-c3ccc(OC4CCN(C)CC4)cc3)c2c1)c1ccccc1Cl [Example A273, (S)-N-(1-(2-chlorophenyl)-2-methylpropyl)-3-(4-((1-methylpiperidin-4-yl)oxy)phenyl)-1H-indazole-5-carboxamide] | < 100 | < 100 | < 100 | < 100 | < 100 | < 100 |
| O=C(NCC1(N2CCOCC2)CCCCC1)c1ccc2[nH]nc(-c3ccc(N4CCNCC4)cc3)c2c1 [Example A505, N-((1-morpholinocyclohexyl)methyl)-3-(4-(piperazin-1-yl)phenyl)-1H-indazole-5-carboxamide] | < 100 | 100 to 500 | < 100 | > 500 | < 100 | 100 to 500 |
| CN1C2CCC1CC(Oc1ccc(-c3n[nH]c4ccc(C(=O)N[C@@H](c5ccccc5)C5CC5)cc34)cc1)C2 (stereo partly drawn) [Example A378, N-((R)-cyclopropyl(phenyl)methyl)-3-(4-(((1R,3R,5S)-8-methyl-8-azabicyclo[3.2.1]octan-3-yl)oxy)phenyl)-1H-indazole-5-carboxamide] | < 100 | 100 to 500 | < 100 | 100 to 500 | < 100 | 100 to 500 |
| CN1[C@@H]2CCC[C@H]1C[C@@H](Oc1ccc(-c3n[nH]c4ccc(C(=O)NC(c5ccccn5)C5CCCC5)cc34)cc1)C2 (stereo partly drawn) [Example A391, N-(cyclopentyl(pyridin-2-yl)methyl)-3-(4-(((1R,3R,5S)-9-methyl-9-azabicyclo[3.3.1]nonan-3-yl)oxy)phenyl)-1H-indazole-5-carboxamide] | < 100 | 100 to 500 | < 100 | < 100 | < 100 | 100 to 500 |
